Peptide text beside a SMILES is read from it. * marks the point of attachment. βNA = c1ccc2cc(N*)ccc2c1
Columns and labels:
Type in all cases: biochemical
[1] = tested on: Capnocytophaga gingivalis; conditions: strain ATCC 33624; β-naphthylamine liberated after 60 minutes, 37° C.
Procedure, shortened: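 Hydrolysis of N-CBz-glycyl-glycyl-L-arginine-β-naphthylamide over 1 h at 37 °C, then colour developed with Fast Garnet GBC (0.5 mg/ml) in 1M acetate pH 4.2 with 10% Tween 20 for 15 min at room temperature. Absorbance read at 525 nm against an enzyme-free control; activity given as nmol β-naphthylamine released in 60 min.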

C. sputigena = assay: Aminopeptidase activity on β-naphthylamide substrates; conditions: strain ATCC 33123; β-naphthylamine liberated after 60 minutes, 37° C.
Experimental: (§1) The enzyme activity was measured by the chromogenic properties of N-CBz-glycyl-glycyl-L-arginine-β-naphthylamide which upon hydrolysis gives a visible color. The aminopeptidase activities listed in the table reflect the nanomoles of β-naphthylamine liberated after 60 minutes under the conditions described below.
(§2) After mixing, the solution is incubated for 1 hour at 37° C. and then 0.4 ml of a solution of stabilized diazonium salt, Fast Garnet GBC (0.5 mg/ml) in a 1M acetic acid buffer (pH 4.2), containing 10% Tween 20 was added to the mixture. After standing for 15 minutes at room temperature, the color reaction can be read manually by comparison with standard solutions or the absorbancy can be determined using a spectrophotometer at 525 nm. The reaction mixture without enzyme solution is used as a control.

B. intermedius = assay: as above; conditions: strain ATCC 25611; β-naphthylamine liberated after 60 minutes, 37° C.
Experimental: as §1, §2

B. melaninogenicus = assay: as above; conditions: strain ATCC 25845; β-naphthylamine liberated after 60 minutes, 37° C.
Experimental: as §1, §2

B. denticola = assay: as above; conditions: strain ATCC 33185; β-naphthylamine liberated after 60 minutes, 37° C.
Experimental: as §1, §2

B. corporis = assay: as above; conditions: strain ATCC 33547; β-naphthylamine liberated after 60 minutes, 37° C.
Experimental: as §1, §2

Veillonella alcalesens = assay: as above; conditions: strain ATCC 11748; β-naphthylamine liberated after 60 minutes, 37° C.
Procedure, shortened: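 Chromogenic assay using N-CBz-glycyl-glycyl-L-arginine-β-naphthylamide, incubated 1 hour at 37° C. Liberated β-naphthylamine is coupled with Fast Garnet GBC (0.5 mg/ml) in 1M acetic acid pH 4.2 with 10% Tween 20 for 15 min at room temperature, then read at 525 nm.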

Structure (SMILES)	Aminopeptidase activity [1] [nmol]	Aminopeptidase activity (C. sputigena) [nmol]	Aminopeptidase activity (B. intermedius) [nmol]	Aminopeptidase activity (B. melaninogenicus) [nmol]	Aminopeptidase activity (B. denticola) [nmol]	Aminopeptidase activity (B. corporis) [nmol]	Aminopeptidase activity (Veillonella alcalesens) [nmol]
CC(C)C[C@H](NC(=O)[C@@H]1CCCN1C(=O)CN)C(=O)Nc1ccc2ccccc2c1 [Gly-Pro-Leu] (H-Gly-Pro-Leu-βNA)	58	28	0	2	1	2	0
C[C@H](N)C(=O)N[C@@H](C)C(=O)N[C@@H](Cc1ccccc1)C(=O)Nc1ccc2ccccc2c1 [Ala-Ala-Phe] (H-Ala-Ala-Phe-βNA)	72	44	0	1	2	0	1
Cl.N=C(N)NCCC[C@H](NC(=O)CNC(=O)CNC(=O)OCc1ccccc1)C(=O)Nc1ccc2ccccc2c1 [N-CBz-Gly-Gly-Arg, N-carbobenzoxy-glycyl-glycyl-L-arginine-β-naphthylamide hydrochloride]	7	5	0	0	0	1	0
CSCCC(N)C(=O)Nc1ccc2ccccc2c1 (racemic)	122	117	0	1	0	0	0
CC(C)C[C@H](N)C(=O)NCC(=O)O [Leu-Gly, Leucyl-glycine] (H-Leu-Gly-OH)	8	20	10	53	42	67	–
NC(=O)[C@@H](N)CCC(=O)O [α-Glu, α -glutamine]	5	7	0	1	0	0	0

From US4994376A, “Detection of bacteroides gingivalis” (priority 1987, dated 1991)
